Source: patent US8299048B2, “Hexahydrocyclopentyl[f]indazole sulfonamides and derivatives thereof as selective glucocorticoid receptor modulators” (Merck Sharp & Dohme Corp., priority 2008, dated 2012)

Tests used:
human GR [1] = biological target: T1, human GR (Homo sapiens, UniProt P04150); experiment: Trans-Activation Modulation of Glucocorticoid Receptor (GRAMMER), MMTV-LUC reporter, agonist mode; type: cell-based; parameters: endogenous in cells; settings: maximum activity; for Emax: A549, A549 cells, read-out: Transactivation A549 Cells GRAMMER Emax
T1 sequence (P04150 1-777): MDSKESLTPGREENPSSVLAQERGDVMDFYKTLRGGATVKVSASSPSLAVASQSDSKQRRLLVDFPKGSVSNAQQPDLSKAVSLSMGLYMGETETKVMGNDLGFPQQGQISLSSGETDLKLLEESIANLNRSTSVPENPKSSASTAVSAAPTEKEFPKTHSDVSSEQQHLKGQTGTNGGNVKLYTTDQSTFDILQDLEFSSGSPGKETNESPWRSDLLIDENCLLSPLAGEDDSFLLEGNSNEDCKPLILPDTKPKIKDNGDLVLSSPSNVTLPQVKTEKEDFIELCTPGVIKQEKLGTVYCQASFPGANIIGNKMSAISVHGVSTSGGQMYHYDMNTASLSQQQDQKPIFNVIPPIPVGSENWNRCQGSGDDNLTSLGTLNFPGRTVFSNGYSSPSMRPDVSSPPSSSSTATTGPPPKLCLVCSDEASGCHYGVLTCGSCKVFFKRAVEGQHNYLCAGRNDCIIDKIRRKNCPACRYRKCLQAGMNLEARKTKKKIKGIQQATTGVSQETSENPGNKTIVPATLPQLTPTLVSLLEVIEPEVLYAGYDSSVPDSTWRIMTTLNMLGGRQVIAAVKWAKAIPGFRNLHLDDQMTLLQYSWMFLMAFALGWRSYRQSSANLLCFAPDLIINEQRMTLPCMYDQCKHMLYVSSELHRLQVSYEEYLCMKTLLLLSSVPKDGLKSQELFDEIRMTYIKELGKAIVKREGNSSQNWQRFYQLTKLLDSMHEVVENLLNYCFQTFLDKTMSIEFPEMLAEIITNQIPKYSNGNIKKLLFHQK
Text: This assay assesses the ability of test compounds to control transcription from the MMTV-LUC reporter gene in lung adenocarcinoma A549 cells or MDA-MB-453 cells, a human breast cancer cell line that naturally expresses the human GR. The assay measures induction of a modified MMTV LTR/promoter linked to the LUC reporter gene.
The routine transient assay consists of plating 7,000-25,000 cells/well of a white, clear-bottom 96-well plate. Alternatively, 384-well plates can be used at a cell concentration of 10,000/well. The media that the cells are plated in is “exponential growth medium” which consists of phenol red-free RPMI1640 containing 10% FBS, 4 mM L-glutamine, 20 mM HEPES, 10 ug/mL human insulin, and 20 ug/mL gentamicin. Incubator conditions are 37° C. and 5% CO2. The transfection is done in batch mode. The cells are trypsinized and counted to the right cell number in the proper amount of fresh media. It is then gently mixed with the FuGene6/DNA mix and plated onto the 96 or 384-well plate, all the wells receive 100 uL or 40 uL, respectively, of medium+lipid/DNA complex then incubated 37° C. overnight. The transfection cocktail consists of serum-free OptiMEM, FuGene6 reagent and DNA. The manufacturer's (Roche Biochemical) protocol for cocktail setup is as follows: The lipid to DNA ratio is approximately 2.5:1 and the incubation time is 20 min at room temperature. Sixteen to 24 hours after transfection, the cells are treated with dexamethasone to a final concentration of 10 nM as well as the compound of interest, such that final DMSO (vehicle) concentration is equal to or less than 1%. Each plate also contains samples that are treated with 10 nM dexamethasone alone, which is used as the 100% activity control. The cells are exposed to the compounds for 24 hours. After 24 hours, the cells are lysed by a Promega cell culture lysis buffer for approximately 30 min and then the luciferase activity in the extracts is assayed in the 96-well format luminometer. In 384-well format, Steady-Glo (Promega) or Steady-Lite (PerkinElmer) can be used by adding an equal volume of reagent to the media present in each well. Activity induced by 10 nM dexamethasone alone is set at 100% activity. Antagonist activity is calculated by determining the decrease in dexamethasone-induced activity in response to compound treatment relative to samples that were treated with dexamethasone alone. […] This transactivation assay can be performed in an agonist and antagonist mode to identify these different activities.

human GR [2] = biological target: T1, human GR; experiment: Transrepression Assay (GITAR), TNFα-β-lactamase reporter in U937 cells; type: cell-based; parameters: U937 cells contain an endogenous glucocorticoid receptor (GR); endogenous in cells; host or cells: U937 cells stably transfected with the TNF-alpha promoter/beta-lactamase reporter; settings: for GITAR > GRAMM % SEP: GITAR Emax minus GRAMMER Emax
Text: This assay assesses the ability of test compounds to control transcription from the TNFα-β-lactamase reporter gene in U937 cells, a human myelomonocytic leukemia cell line that naturally expresses the human GR. The assay measures compound dependent-repression of the TNFa promoter linked to a reporter gene.
The human U937 cells that had been stablely transfected with the TNF-α promoter driving β-lactamase are used for this assay. U937 cells contain an endogenous glucocorticoid receptor (GR). Cells are maintained in RPMI 1640 Growth medium (Gibco Cat#11875-093) containing 25 mM HEPES, 10% FBS, 2 mM L-Glutamine, 1 mM Sodium pyruvate, 25 μg/ml Gentamicin (Gibco Cat#15710-064), 1:1000 2-Mercaptoethanol (Gibco Cat#21985-023) and 0.8 mg/ml G418 (Gibco Cat#10131-027). The density of the cells in the flask needs to be about 1×10^6−3×10^6/ml at the time of harvest. Usually, the cells are split to 1.2˜1.4×10^5/ml (1:10) 3 days prior to the assay. 50,000 cells/well are plated in 96 well black-walled plates the day of assay. Test compounds are added 10 μL/well, and cells are incubated at 37° C. for 30˜45 min. For assaying compounds, first dilute 1:10 in DMSO to make 1 mM, then further dilute 1:100 in medium to make 10× stock prior to adding to the cells. Add 50 ng/mlPMA (Sigma, cat# P8139) 10 μL/well to a final concentration 5 ng/ml, and 1 μg/ml LPS (Sigma, cat# L4130) 10 μL/well to a final concentration 100 ng/ml. Incubate cells at 37° C. overnight for ˜18 hr. PMA is stored frozen as 100 μg/ml stock in DMSO. Dilute 1:10 in DMSO for a working stock of 10 μg/ml and store at −20 C. For assaying, dilute the 10 μg/ml working stock 1:200 in medium to make a 10× solution (50 ng/ml). Store frozen LPS at 1 mg/ml in PBS, dilute 1:1000 in medium to make 10× (1 μg/ml) for the assay. Add 6× loading buffer (CCF2-AM) 20 μL/well, and incubate at room temperature for 70˜90 min. […] The activity repressed by 100 nM dexamethasone alone is set as 100% activity.

[3] = U-937, U937 cells, maximum activity, read-out: Transrepression U937 Cells GITAR Emax
[4] = U-937, activity repressed by 100 nM dexamethasone alone set as 100%, read-out: maximal activity in the transrepression (GITAR) assay

| SMILES | Emax (human GR [1]) [%] | GITAR > GRAMM % SEP (human GR [2]) [%] | Emax (human GR [2]; [3]) [%] | Emax (human GR [2]; [4]) [%] | Transactivation A549 Cells GRAMMER Emax (human GR [1]; A549 cells) [%] | Transrepression U937 Cells GITAR Emax (human GR [2]; U937 cells, maximum activity) [%] |
| --- | --- | --- | --- | --- | --- | --- |
| C[C@]12Cc3cnn(-c4ccc(F)cc4)c3C=C1CC[C@@H]2CN(CCc1ccccc1F)S(=O)(=O)C1CC1 [Example 101, N-[2-(2-fluorophenyl)ethyl]-N-{[(4αR,5S)-1-(4-fluorophenyl)-4α-methyl-1,4,4α,5,6,7-hexahydrocyclopenta[f]indazol-5-yl]methyl}cyclopropanesulfonamide] | 62.8 | 32.6 | 95.4 | > 5 |  |  |
| C[C@]12Cc3cnn(-c4ccc(F)cc4)c3C=C1CC[C@@H]2CN(CCO)S(=O)(=O)c1ccc(-c2cnco2)s1 [Example 57, N-{[(4αR,5S)-1-(4-fluorophenyl)-4α-methyl-1,4,4α,5,6,7-hexahydrocyclopenta[f]indazol-5-yl]methyl}-N-(2-hydroxyethyl)-5-(1,3-oxazol-5-yl)thiophene-2-sulfonamide] | 2.7 | 21.0 | 23.8 | > 5 |  |  |
| C[C@]12Cc3cnn(-c4ccc(F)cc4)c3C=C1CC[C@@H]2CN(CCO)S(=O)(=O)c1ccc(C#N)cc1 [Example 62, 4-cyano-N-{[(4αR,5S)-1-(4-fluorophenyl)-4α-methyl-1,4,4α,5,6,7-hexahydrocyclopenta[f]indazol-5-yl]methyl}-N-(2-hydroxyethyl)benezenesulfonamide] | 26 | 42.5 | 68.5 | > 5 |  |  |
| C[C@]12Cc3cnn(-c4ccc(F)cc4)c3C=C1CC[C@@H]2CN(CC1CC1)S(=O)(=O)c1ccccc1Cl [Example 22, 2-chloro-N-(cyclopropylmethyl)-N-{[(4αR,5S)-1-(4-fluorophenyl)-4α-methyl-1,4,4α,5,6,7-hexahydrocyclopenta[f]indazol-5-yl]methyl}benzenesulfonamide] |  | 43.9 |  |  | 27.9 | 71.8 |
| C[C@]12Cc3cnn(-c4ccc(F)cc4)c3C=C1CC[C@@H]2CN(CC1CC1)S(=O)(=O)c1ccccc1Cl [Example 12, 2-chloro-N-(cyclopropylmethyl)-N-{[(4αR,5S)-1-(4-fluorophenyl)-4α-methyl-1,4,4α,5,6,7-hexahydrocyclopenta[f]indazol-5-yl]methyl}benzenesulfonamide] | 34.4 | 29.8 | 64.2 | > 5 |  |  |
